Test results: patent US4012382A, “α-Amino and α-formyl-α-(p-acyloxyphenyl)acetamidocephalosporanic acid derivatives” (priority 1974, dated 1977)
≈ marks a conversion by molar mass, not a printed value.

Columns and labels:
D. pneumoniae A9585 = test: MIC, 2-fold broth dilution, D. pneumoniae A9585; type: cell-based; details: Streptococcus pneumoniae, 10-3 dilution of overnite broth culture, 45% AAB + 5% serum + 50% NB
Experimental: (§1) *45% AAB + 5% serum + 50% NB
(§2) **Dilution of overnite broth culture
(§3) Minimal inhibitory concentrations were determined by the 2-fold broth dilution method utilizing equimolar concentrations of each compound.

Str. pyogenes A9604 = test: MIC, 2-fold broth dilution, Str. pyogenes A9604; type: cell-based; details: Streptococcus pyogenes, 10-3 dilution of overnite broth culture, 45% AAB + 5% serum + 50% NB
Experimental: as §1, §2, §3

S. aureus Smith A9537 = test: MIC, 2-fold broth dilution, S. aureus Smith A9537; type: cell-based; details: Staphylococcus aureus, SMITHA9537, Nutrient Broth, 10-4
Experimental: as §3

S. aureus BX1633 A9606 = test: MIC, 2-fold broth dilution, S. aureus BX1633 A9606; type: cell-based; details: Staphylococcus aureus, BX1633A9606, Nutrient Broth
Experimental: as §3

[1] = tested on: S. aureus Meth-Res A15097; test: MIC, 2-fold broth dilution, S. aureus Meth-Res A15097; type: cell-based; details: Staphylococcus aureus; Nutrient Broth; 10-3
Experimental: as §3

Sal. enteritidis A9531 = test: MIC, 2-fold broth dilution, Sal. enteritidis A9531; type: cell-based; details: Salmonella enterica, Nutrient Broth, 10-4
Experimental: as §3

E. coli Juhl A15119 = test: MIC, 2-fold broth dilution, E. coli Juhl A15119; type: cell-based; details: Escherichia coli, JUHLA15119; Nutrient Broth; 10-4
Experimental: as §3

E. coli A9675 = test: MIC, 2-fold broth dilution, E. coli A9675; type: cell-based; details: Escherichia coli, Nutrient Broth, 10-4
Experimental: as §3

K. pneumoniae A9977 = test: MIC, 2-fold broth dilution, K. pneumoniae A9977; type: cell-based; details: Klebsiella pneumoniae, Nutrient Broth, 10-4
Experimental: as §3

K. pneumoniae A15130 = test: MIC, 2-fold broth dilution, K. pneumoniae A15130; type: cell-based; details: Klebsiella pneumoniae, Nutrient Broth, 10-4
Experimental: as §3

Pr. mirabilis A9900 = test: MIC, 2-fold broth dilution, Pr. mirabilis A9900; type: cell-based; details: Proteus mirabilis, Nutrient Broth, 10-4
Experimental: as §3

Pr. morganii A15153 = test: MIC, 2-fold broth dilution, Pr. morganii A15153; type: cell-based; details: Morganella morganii, Nutrient Broth, 10-4
Experimental: as §3

Ps. aeruginosa A9843A = test: MIC, 2-fold broth dilution, Ps. aeruginosa A9843A; type: cell-based; details: Pseudomonas aeruginosa
Experimental: as §3

Ser. marcescens A20019 = test: MIC, 2-fold broth dilution, Ser. marcescens A20019; type: cell-based; details: Serratia marcescens, Nutrient Broth, 10-4
Experimental: as §3

Ent. cloacae A9656 = test: MIC, 2-fold broth dilution, Ent. cloacae A9656; type: cell-based; details: Enterobacter cloacae, Nutrient Broth, 10-4
Experimental: as §3

Ent. cloacae A9657 = test: MIC, 2-fold broth dilution, Ent. cloacae A9657; type: cell-based; details: Enterobacter cloacae, Nutrient Broth, 10-4
Experimental: as §3

Ent. cloacae A9659 = test: MIC, 2-fold broth dilution, Ent. cloacae A9659; type: cell-based; details: Enterobacter cloacae, Nutrient Broth, 10-4
Experimental: as §3

[2] = Hydrolysis in human serum (bioautographed paper chromatography); type: in vitro ADME
Experimental: (§4) Solutions of 0.5 mg./ml. of 7-D-(-)α-amino-α-p(-acetoxyphenylacetamido)desacetoxycephalosporanic acid (p-acetoxycephalexin) in normal saline and in human serum were prepared. Standard solutions of 0.5 mg./ml. of 7-D-(-)α-amino-α-p(-hydroxyphenylacetamido)desacetoxycephalosporanic acid (p-hydroxycephalexin) were also prepared in both normal saline and human serum.
(§5) All the above solutions were incubated at 37° C. with shaking and sampled for chromatography at time intervals of 0, 2, 4, 8 and 24 hours. The solutions, approximately 5 microliters per strip, were spotted on Whatman No. 1 half-inch strips which were dried and developed in a solvent system containing 80 parts butylacetate; 15 parts n-butanol; 40 parts acetic acid; and 24 parts water. The strips were then bioautographed on plates seeded with bacillus subtilis at a pH of 6.0.

[3] = Stability in normal saline (bioautographed paper chromatography); type: physicochemical; details: 0.5 mg./ml. in normal saline, 37° C., sampled 0-24 hours
Experimental: as §4, §5

SMILES	MIC (D. pneumoniae A9585) [µg/mL]	MIC (Str. pyogenes A9604) [µg/mL]	MIC (S. aureus Smith A9537) [µg/mL]	MIC (S. aureus Smith A9537; + 50% serum) [µg/mL]	MIC (S. aureus BX1633 A9606; 10-2) [µg/mL]	MIC (S. aureus BX1633 A9606; 10-3) [µg/mL]	MIC [1] [µg/mL]	MIC (Sal. enteritidis A9531) [µg/mL]	MIC (E. coli Juhl A15119) [µg/mL]	MIC (E. coli A9675) [µg/mL]	MIC (K. pneumoniae A9977) [µg/mL]	MIC (K. pneumoniae A15130) [µg/mL]	MIC (Pr. mirabilis A9900) [µg/mL]	MIC (Pr. morganii A15153) [µg/mL]	MIC (Ps. aeruginosa A9843A) [µg/mL]	MIC (Ser. marcescens A20019) [µg/mL]	MIC (Ent. cloacae A9656) [µg/mL]	MIC (Ent. cloacae A9657) [µg/mL]	MIC (Ent. cloacae A9659) [µg/mL]	other results
CC1=C(C(=O)O)N2C(=O)[C@@H](NC(=O)[C@H](N)c3ccc(O)cc3)[C@H]2SC1 [BL-S 578-4, 7-D-(-)α-amino-α-(p-hydroxyphenylacetamido)desacetoxycephalosporanic acid, reference compound]	0.6	0.08	1.3 (≈ 3.58 µM)	1.3	2 (≈ 5.5 µM)	2 (≈ 5.5 µM)	16 (≈ 44 µM)	8 (≈ 22 µM)	16 (≈ 44 µM)	32 (≈ 88.1 µM)	16 (≈ 44 µM)	32 (≈ 88.1 µM)	8 (≈ 22 µM)	> 125	> 125	> 125	> 125	16 (≈ 44 µM)	> 125	
N[C@@H](C(=O)N[C@@H]1C(=O)N2C(C(=O)O)=C(CSc3c[nH]nn3)CS[C@H]12)c1ccc(O)cc1 [Bl-S640, reference compound]	0.04	0.04	0.3 (≈ 0.649 µM)	1	1 (≈ 2.16 µM)	0.6 (≈ 1.3 µM)	4 (≈ 8.65 µM)	0.6 (≈ 1.3 µM)	0.5 (≈ 1.08 µM)	4 (≈ 8.65 µM)	0.5 (≈ 1.08 µM)	1 (≈ 2.16 µM)	0.5 (≈ 1.08 µM)	63 (≈ 136 µM)	125 (≈ 270 µM)	125 (≈ 270 µM)	125 (≈ 270 µM)	0.5 (≈ 1.08 µM)	32 (≈ 69.2 µM)	
CC(=O)Oc1ccc([C@@H](N)C(=O)N[C@@H]2C(=O)N3C(C(=O)O)=C(C)CS[C@H]23)cc1 [RN 1394, 7-D(-)2-amino-2-(4-acetoxyphenylacetamido)desacetoxycephalosporanic acid]	0.08	0.08	0.6 (≈ 1.48 µM)	0.6	2 (≈ 4.93 µM)	1 (≈ 2.47 µM)	32 (≈ 78.9 µM)	8 (≈ 19.7 µM)	32 (≈ 78.9 µM)	63 (≈ 155 µM)	16 (≈ 39.5 µM)	32 (≈ 78.9 µM)	8 (≈ 19.7 µM)	> 125	> 125	> 125	> 125	8 (≈ 19.7 µM)	> 125	hydrolysis to the p-hydroxy form in human serum ([2]; 0.5 mg./ml. in human serum, 37° C., sampled 0-24 hours): quickly hydrolyzed to the p-hydroxy form; enzymatic hydrolysis to the p-hydroxy compound ([2]; enzymatic): hydrolyzed enzymatically; stability in normal saline ([3]; listed as 7-D-(-)α-amino-α-(p-acetoxyphenyl-acetamido)desacetoxycephalosporanic acid): stable in normal saline; stability in normal saline ([3]; listed as p-acetoxycephalexin): appears stable
CC(=O)Oc1ccc([C@@H](N)C(=O)N[C@@H]2C(=O)N3C(C(=O)O)=C(CSc4c[nH]nn4)CS[C@H]23)cc1 [RN 1396]	0.04	0.04	0.16 (≈ 0.317 µM)	1	4 (≈ 7.93 µM)	0.6 (≈ 1.19 µM)	8 (≈ 15.9 µM)	0.3 (≈ 0.595 µM)	2 (≈ 3.96 µM)	8 (≈ 15.9 µM)	1 (≈ 1.98 µM)	2 (≈ 3.96 µM)	0.5 (≈ 0.991 µM)	63 (≈ 125 µM)	125 (≈ 248 µM)	125 (≈ 248 µM)	125 (≈ 248 µM)	1 (≈ 1.98 µM)	32 (≈ 63.4 µM)	
